Assay results published in ChEMBL document CHEMBL1201862, “PubChem BioAssay data set” (2004).
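Growth conditions: 96-well plates. Treatment: test compound, 48 hours, 5 concentrations. Analysis: linear interpolation between bracketing concentrations; unreached endpoints set to highest concentration. GI50: concentration for 50% inhibition of growth.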 Calls of active or inactive are those of the source. Cut-off read from the data, not from the text of the source: active = GI50 up to about 1.1 µM and inactive = higher.

Key:
Test in all cases: DTP human tumour cell line panel, 48 h
A549 = test system: A549
COLO 205 = test system: COLO 205
HCT-116 = test system: HCT-116
HL-60 = test system: HL-60
KM12 = test system: KM12
NCI-H226 = test system: NCI-H226
NCI-H23 = test system: NCI-H23
OVCAR-3 = test system: OVCAR-3
OVCAR-4 = test system: OVCAR-4
OVCAR-5 = test system: OVCAR-5
OVCAR-8 = test system: OVCAR-8
RPMI-8226 = test system: RPMI-8226
SF-295 = test system: SF-295
SK-MEL-28 = test system: SK-MEL-28
SNB-75 = test system: SNB-75
UACC-62 = test system: UACC-62
A498 = test system: A498

Measured: GI50

O=C(CC1SC(Nc2ccccc2Cl)=NC1=O)Nc1ccc(Cl)cc1Cl (configuration not stated)
inactive: A549 > 100 µM | COLO 205 > 100 µM | HCT-116 > 100 µM | HL-60 > 100 µM | KM12 > 100 µM | NCI-H226 > 100 µM | NCI-H23 > 100 µM | OVCAR-3 > 100 µM | OVCAR-4 > 100 µM | OVCAR-5 > 100 µM | OVCAR-8 > 100 µM | RPMI-8226 54 µM | SF-295 > 100 µM | SK-MEL-28 > 100 µM | SNB-75 > 100 µM | UACC-62 > 100 µM

CCCN1C(=O)CNC(=O)c2[nH]cnc21
inactive: A498 > 100 µM | A549 > 100 µM | COLO 205 > 100 µM | HCT-116 > 100 µM | HL-60 > 100 µM | KM12 > 100 µM | NCI-H226 > 100 µM | NCI-H23 > 100 µM | OVCAR-3 > 100 µM | OVCAR-5 > 100 µM | OVCAR-8 > 100 µM | RPMI-8226 > 100 µM | SF-295 > 100 µM | SK-MEL-28 > 100 µM | SNB-75 > 100 µM | UACC-62 48.3 µM

CCOC(=O)Cc1nc2ccc3c(c2nc1O)C(=O)c1ccccc1C3=O
inactive: A498 28.4 µM | A549 34.4 µM | COLO 205 > 100 µM | HCT-116 31.5 µM | KM12 14.7 µM | NCI-H226 80.7 µM | NCI-H23 40.2 µM | OVCAR-3 58.3 µM | OVCAR-4 46.5 µM | OVCAR-5 > 100 µM | OVCAR-8 31.6 µM | RPMI-8226 13.6 µM | SK-MEL-28 > 100 µM | SNB-75 62.7 µM | UACC-62 34.5 µM

CN1N=C(Nc2ccccc2)Sc2c1cnn(-c1ccccc1)c2=O
inactive: A498 > 100 µM | A549 > 100 µM | COLO 205 > 100 µM | HCT-116 > 100 µM | HL-60 85.7 µM | KM12 > 100 µM | NCI-H23 66.1 µM | OVCAR-3 28.1 µM | OVCAR-4 94.4 µM | OVCAR-8 > 100 µM | RPMI-8226 93.3 µM | SF-295 73.3 µM | UACC-62 40 µM

CSc1ccc2c(cc1=O)C(NC(=O)c1ccc(C#N)cc1)CCc1cc(O)c(O)c(O)c1-2 (configuration not stated)
inactive: A498 44.5 µM | A549 44.4 µM | COLO 205 19.6 µM | HCT-116 18.4 µM | HL-60 20.1 µM | KM12 33.7 µM | NCI-H226 26.2 µM | NCI-H23 27.6 µM | OVCAR-3 36.6 µM | OVCAR-4 12.1 µM | OVCAR-5 > 100 µM | OVCAR-8 30.5 µM | SF-295 27.2 µM | SK-MEL-28 > 100 µM | SNB-75 4.2 µM | UACC-62 19.3 µM

COc1ccc(C2N3CCCCC3[C@@H]3c4[nH]c5ccccc5c4CCN23)c(OC)c1 (some centres not stated)
inactive: A498 15.5 µM | A549 40.8 µM | COLO 205 18.2 µM | HCT-116 21.1 µM | HL-60 18.2 µM | NCI-H23 22.6 µM | OVCAR-3 24.6 µM | OVCAR-4 25.5 µM | OVCAR-5 22.2 µM | OVCAR-8 33.3 µM | RPMI-8226 15.8 µM | SF-295 42.3 µM | SK-MEL-28 19.1 µM | UACC-62 16.3 µM

CCc1cc2c(Nc3ccccc3)c3c(nc2s1)CCCC3
inactive: A498 25.8 µM | A549 8.53 µM | COLO 205 > 100 µM | HCT-116 9.35 µM | HL-60 6.05 µM | KM12 > 100 µM | OVCAR-3 6.56 µM | OVCAR-4 24 µM | OVCAR-5 > 100 µM | OVCAR-8 > 100 µM | RPMI-8226 3.71 µM | SF-295 28.8 µM | SK-MEL-28 > 100 µM | SNB-75 7.46 µM | UACC-62 15.3 µM

O=C(N/N=C/c1ccccc1O)c1cccc([N+](=O)[O-])c1
inactive: A498 76.7 µM | A549 31 µM | COLO 205 20.9 µM | HCT-116 22.5 µM | HL-60 3.01 µM | KM12 29.6 µM | NCI-H23 16.5 µM | OVCAR-3 1.71 µM | OVCAR-4 50.5 µM | OVCAR-5 22.4 µM | OVCAR-8 6.95 µM | RPMI-8226 8.04 µM | SF-295 19.7 µM | SK-MEL-28 25 µM | UACC-62 20.7 µM

O=S(=O)(NCn1ccc2ccccc21)c1ccccc1
inactive: A498 > 100 µM | A549 > 100 µM | COLO 205 > 79.8 µM | HCT-116 49.3 µM | HL-60 22.4 µM | KM12 > 60.7 µM | NCI-H226 > 100 µM | NCI-H23 > 100 µM | OVCAR-3 > 100 µM | OVCAR-5 > 100 µM | OVCAR-8 > 76.2 µM | RPMI-8226 21.5 µM | SF-295 > 100 µM | SK-MEL-28 > 77.8 µM | SNB-75 > 100 µM | UACC-62 > 73.8 µM

CN(C)CC1CCCCCCCCCCCCC(CN(C)C)C1=O (configuration not stated)
inactive: A498 18.7 µM | A549 15.5 µM | COLO 205 14 µM | HCT-116 4.54 µM | KM12 11.1 µM | NCI-H226 11 µM | NCI-H23 17.7 µM | OVCAR-3 16.8 µM | OVCAR-4 15.7 µM | OVCAR-5 16.7 µM | OVCAR-8 10.3 µM | SF-295 15.8 µM | SK-MEL-28 13.6 µM | SNB-75 11.9 µM | UACC-62 13.3 µM

O=C1OC(c2ccccc2)=N/C1=C\c1cc(Cl)ccc1Cl
inactive: A498 > 100 µM | A549 > 100 µM | COLO 205 > 100 µM | HCT-116 10.3 µM | HL-60 6.64 µM | KM12 74.1 µM | NCI-H23 > 100 µM | OVCAR-4 > 100 µM | OVCAR-5 > 100 µM | OVCAR-8 > 10 µM | RPMI-8226 44.8 µM | SF-295 > 100 µM | SK-MEL-28 > 100 µM | SNB-75 3.48 µM | UACC-62 > 100 µM

CCCCCCCCCCCCCCCCCc1nnc(N)o1
inactive: A549 > 100 µM | COLO 205 > 100 µM | HCT-116 > 100 µM | HL-60 > 100 µM | KM12 > 100 µM | NCI-H226 > 100 µM | NCI-H23 47.4 µM | OVCAR-3 > 100 µM | OVCAR-4 > 100 µM | OVCAR-5 > 100 µM | OVCAR-8 > 100 µM | RPMI-8226 > 100 µM | SF-295 > 100 µM | SK-MEL-28 > 100 µM | SNB-75 > 100 µM | UACC-62 > 100 µM

COC(=O)C12CC3CC(C1)CC(C(=O)OC)(C3)C2
inactive: A498 > 100 µM | A549 > 100 µM | HCT-116 > 100 µM | HL-60 55.8 µM | KM12 > 100 µM | NCI-H23 > 100 µM | OVCAR-3 > 100 µM | OVCAR-4 > 100 µM | OVCAR-5 > 100 µM | OVCAR-8 > 100 µM | RPMI-8226 > 100 µM | SF-295 > 100 µM | SK-MEL-28 > 100 µM | SNB-75 > 100 µM | UACC-62 > 100 µM
